Source: PMC3623016 (Journal of biomolecular screening, 2012)
Values joined by “and” are separate entries in the source; they are usually repeats but may differ in a detail not shown here. Identical values can stand only once. “Also recorded” adds a separate entry of the source. Counter-ions that a name gives are not always drawn. Values belong to the compound of their own block, whether it stands above or below them.

How the values were obtained:
ABCB1 [1] = biological target: T1, ABCB1 (Homo sapiens, UniProt P08183); assay: JC-1 efflux inhibition dose-response, flow cytometry, Jurkat-DNR cells
ABCG2 [2] = biological target: T2, ABCG2 (Homo sapiens, UniProt Q9UNQ0); assay: JC-1 efflux inhibition dose-response, flow cytometry, Ig-MXP3 cells; assay type: cell-based
T2 sequence (Q9UNQ0 1-655): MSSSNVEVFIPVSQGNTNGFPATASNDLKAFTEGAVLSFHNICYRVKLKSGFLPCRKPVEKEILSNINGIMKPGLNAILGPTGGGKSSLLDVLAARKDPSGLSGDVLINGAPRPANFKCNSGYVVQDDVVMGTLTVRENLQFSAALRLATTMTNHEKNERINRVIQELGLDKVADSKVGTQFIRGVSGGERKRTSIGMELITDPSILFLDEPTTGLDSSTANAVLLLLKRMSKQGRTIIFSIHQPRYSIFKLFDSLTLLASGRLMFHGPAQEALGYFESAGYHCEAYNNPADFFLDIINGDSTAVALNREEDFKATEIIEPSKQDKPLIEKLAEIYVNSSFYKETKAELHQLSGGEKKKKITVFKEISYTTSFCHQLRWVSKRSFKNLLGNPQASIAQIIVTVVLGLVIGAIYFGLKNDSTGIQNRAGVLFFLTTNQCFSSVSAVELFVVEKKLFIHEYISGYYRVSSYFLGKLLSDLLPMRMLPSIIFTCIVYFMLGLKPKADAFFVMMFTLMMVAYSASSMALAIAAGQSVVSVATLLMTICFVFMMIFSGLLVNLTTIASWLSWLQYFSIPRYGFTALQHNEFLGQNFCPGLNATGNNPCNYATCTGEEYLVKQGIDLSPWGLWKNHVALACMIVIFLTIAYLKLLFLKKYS

Ig-MXP3 cells = assay: Direct cytotoxicity; assay type: cell-based
Igrov1/T8 derived tumors = assay: Preliminary in vivo study, ABCG2 resistant tumors, combination with topotecan; parameters: species or system CB-17 SCID mice; conditions: for tumor size: intratumoral, daily, 0 to 96 hr, n = 3, p < 0.001
ABCG2 [3] = biological target: T2, ABCG2; assay: Chemoreversal secondary assay
ABCB1 [4] = biological target: T1, ABCB1; assay: Chemoreversal secondary assay
[5] = system: drug resistant (ABCG2 expressing) tumor cells; assay: Topotecan killing of drug resistant tumor cells; assay type: cell-based; conditions: read-out: EC50 resistant cells
[6] = system: non-resistant (ABCG2 non-expressing) parental tumor cells; assay: Topotecan killing of parental tumor cells; assay type: cell-based; conditions: read-out: EC50 parental cells

T1 sequence (P08183 whole entry): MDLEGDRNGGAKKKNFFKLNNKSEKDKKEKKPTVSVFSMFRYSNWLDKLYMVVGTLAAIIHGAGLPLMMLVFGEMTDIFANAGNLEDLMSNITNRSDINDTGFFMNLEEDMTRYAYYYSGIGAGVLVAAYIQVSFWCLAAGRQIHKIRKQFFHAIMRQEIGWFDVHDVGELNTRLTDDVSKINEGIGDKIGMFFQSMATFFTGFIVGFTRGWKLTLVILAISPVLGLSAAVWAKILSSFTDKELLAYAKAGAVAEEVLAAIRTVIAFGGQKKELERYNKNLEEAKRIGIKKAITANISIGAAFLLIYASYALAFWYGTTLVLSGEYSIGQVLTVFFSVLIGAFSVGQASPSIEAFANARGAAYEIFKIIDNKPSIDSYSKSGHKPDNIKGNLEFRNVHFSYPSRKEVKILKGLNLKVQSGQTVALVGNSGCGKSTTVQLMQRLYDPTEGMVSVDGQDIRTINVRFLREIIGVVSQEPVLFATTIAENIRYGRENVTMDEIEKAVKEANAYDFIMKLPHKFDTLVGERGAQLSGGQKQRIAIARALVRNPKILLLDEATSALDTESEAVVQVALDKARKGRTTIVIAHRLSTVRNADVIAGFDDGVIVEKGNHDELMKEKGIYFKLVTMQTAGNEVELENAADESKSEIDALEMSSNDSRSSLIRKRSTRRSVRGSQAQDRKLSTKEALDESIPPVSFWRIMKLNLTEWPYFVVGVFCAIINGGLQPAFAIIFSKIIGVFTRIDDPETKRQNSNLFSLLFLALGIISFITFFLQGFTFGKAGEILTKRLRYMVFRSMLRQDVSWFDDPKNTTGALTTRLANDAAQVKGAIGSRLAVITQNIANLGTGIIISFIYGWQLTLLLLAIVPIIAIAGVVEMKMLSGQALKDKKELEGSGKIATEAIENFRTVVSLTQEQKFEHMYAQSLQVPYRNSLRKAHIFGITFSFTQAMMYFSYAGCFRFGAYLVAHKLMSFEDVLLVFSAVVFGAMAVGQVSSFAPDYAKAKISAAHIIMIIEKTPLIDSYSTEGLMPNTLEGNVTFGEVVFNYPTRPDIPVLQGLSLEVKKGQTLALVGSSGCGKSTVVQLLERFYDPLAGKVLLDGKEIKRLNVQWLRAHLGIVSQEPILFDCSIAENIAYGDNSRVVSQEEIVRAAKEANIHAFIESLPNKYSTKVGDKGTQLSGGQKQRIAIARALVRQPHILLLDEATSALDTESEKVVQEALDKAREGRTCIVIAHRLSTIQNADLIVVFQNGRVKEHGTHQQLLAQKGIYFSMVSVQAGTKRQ

Structure (SMILES): O=C(c1ccoc1)N1CCN(c2cc(-c3ccco3)nc3cc(-c4ccccc4)nn23)CC1 [Compound 1]
EC50 (ABCB1 [1]; read-out: ABCB1 EC50, efflux assay, as worded): 4.65 µM
higher potency in ABCG2 than Ko143 (ABCG2 [2]; JC-1 efflux reporter system): approximately 100 fold
∼Fold G2 Selective (ABCG2 [2]; quotient of average ABCB1 IC50 and average ABCG2 IC50, JC-1 efflux assay): 36 fold and 35.8 fold
EC50 (ABCG2 [2]; read-out: ABCG2 EC50, efflux assay, as worded): 0.13 µM
ABCB1 TD50 (Jurkat-DNR cells): 5.52 µM
ABCG2 TD50 (Ig-MXP3 cells): 18.30 µM
tumor size (Igrov1/T8 derived tumors; 100 nM of 1 with 150 nM TPT): dramatically reduced tumor size; also recorded: Significant tumor reduction

IC50 (ABCB1 [1]): > 50 µM
EC50 (ABCG2 [3]): 57.4 µM
IC50 (ABCG2 [2]): > 50 µM
EC50 (ABCB1 [4]): 20.4 µM
Structure (SMILES): CN(C)C(=O)CCSC(SCCC(=O)O)c1cccc(/C=C/c2ccc3ccc(Cl)cc3n2)c1 (stereo not drawn) [Compound 5, MK571, reference compound]

Structure (SMILES): Cc1nc2cc(-c3cccc(F)c3)nn2c(N2CCN(C(=O)c3ccco3)CC2)c1C [Compound 7]
tumor size (Igrov1/T8 derived tumors; 500 nM of 7 with 150 nM TPT): dramatically reduced tumor size; also recorded: Significant tumor reduction

Structure (SMILES): CC[C@@]1(O)C(=O)OCc2c1cc1n(c2=O)Cc2cc3c(CN(C)C)c(O)ccc3nc2-1 [TPT, topotecan hydrochloride hydrate]
EC50 [5]: 0.311 µM
EC50 [6]: 0.007 µM
growth of tumors (Igrov1/T8 derived tumors; 150 nM TPT alone, intratumoral (data not shown)): did not affect the growth of tumors
